From patent US20040138199A1, “Benzoxazines and derivatives thereof as therapeutic agents” (priority 2002, published 2004)

biological target: T1, p101/p110γ protein (PI3Kγ) (Homo sapiens, UniProt P48736); assay: PI3Kγ In Vitro Kinase Assay; type: biochemical; settings: purified recombinant p101/p110γ with G protein β1/γ2 subunits; 20 μM ATP, 25 μM PIP2; 20 minutes at room temperature; radioactive PIP3 readout
T1 construct: HA; made in house; host or cells: Spodoptera frugiperda (Sf9) cells, baculovirus coinfection
Summary of the method: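 Baculovirus/Sf9-expressed p101/p110γ (~2.7 nM) with G protein β1/γ2, 20 μM ATP plus [γ-32P]ATP, PIP2/PE micelles (25 μM PIP2, 300 μM PE, 10 mM MgCl2) in HEPES buffer. Reaction 20 min at room temperature, stopped with H3PO4; radiolabelled PIP3 counted on filters to derive IC50 (μM).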

T1 sequence (P48736 whole entry, species assumed): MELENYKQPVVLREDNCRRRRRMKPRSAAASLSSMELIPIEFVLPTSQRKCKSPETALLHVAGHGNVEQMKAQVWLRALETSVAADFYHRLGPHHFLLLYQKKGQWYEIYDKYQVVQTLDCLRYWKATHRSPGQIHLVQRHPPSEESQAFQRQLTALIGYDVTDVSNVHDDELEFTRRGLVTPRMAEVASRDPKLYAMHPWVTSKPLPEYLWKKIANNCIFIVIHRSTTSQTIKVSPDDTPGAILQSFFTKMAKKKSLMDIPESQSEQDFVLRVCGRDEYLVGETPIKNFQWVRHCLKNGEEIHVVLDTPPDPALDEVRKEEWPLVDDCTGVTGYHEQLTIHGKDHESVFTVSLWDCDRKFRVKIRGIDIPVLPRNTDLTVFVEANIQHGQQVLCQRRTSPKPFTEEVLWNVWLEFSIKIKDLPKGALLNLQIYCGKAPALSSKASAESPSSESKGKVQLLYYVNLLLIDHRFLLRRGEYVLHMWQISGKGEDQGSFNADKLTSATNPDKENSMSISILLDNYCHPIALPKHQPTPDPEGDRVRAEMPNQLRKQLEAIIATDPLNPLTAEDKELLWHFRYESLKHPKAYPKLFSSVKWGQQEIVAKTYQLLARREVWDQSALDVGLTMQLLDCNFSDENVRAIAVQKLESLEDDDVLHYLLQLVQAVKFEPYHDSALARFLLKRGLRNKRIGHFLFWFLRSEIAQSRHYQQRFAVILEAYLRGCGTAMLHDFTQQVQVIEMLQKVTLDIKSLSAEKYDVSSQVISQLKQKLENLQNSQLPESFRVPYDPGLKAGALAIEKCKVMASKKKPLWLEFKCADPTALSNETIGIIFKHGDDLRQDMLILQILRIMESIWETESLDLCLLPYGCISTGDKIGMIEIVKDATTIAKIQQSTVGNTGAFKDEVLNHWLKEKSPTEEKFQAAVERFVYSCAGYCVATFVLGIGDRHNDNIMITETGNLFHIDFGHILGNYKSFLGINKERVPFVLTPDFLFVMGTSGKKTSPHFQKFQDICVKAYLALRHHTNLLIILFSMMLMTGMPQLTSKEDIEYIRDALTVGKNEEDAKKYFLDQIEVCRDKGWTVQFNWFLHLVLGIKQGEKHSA
T1 sequence (Q8WYR1 whole entry partner, species assumed): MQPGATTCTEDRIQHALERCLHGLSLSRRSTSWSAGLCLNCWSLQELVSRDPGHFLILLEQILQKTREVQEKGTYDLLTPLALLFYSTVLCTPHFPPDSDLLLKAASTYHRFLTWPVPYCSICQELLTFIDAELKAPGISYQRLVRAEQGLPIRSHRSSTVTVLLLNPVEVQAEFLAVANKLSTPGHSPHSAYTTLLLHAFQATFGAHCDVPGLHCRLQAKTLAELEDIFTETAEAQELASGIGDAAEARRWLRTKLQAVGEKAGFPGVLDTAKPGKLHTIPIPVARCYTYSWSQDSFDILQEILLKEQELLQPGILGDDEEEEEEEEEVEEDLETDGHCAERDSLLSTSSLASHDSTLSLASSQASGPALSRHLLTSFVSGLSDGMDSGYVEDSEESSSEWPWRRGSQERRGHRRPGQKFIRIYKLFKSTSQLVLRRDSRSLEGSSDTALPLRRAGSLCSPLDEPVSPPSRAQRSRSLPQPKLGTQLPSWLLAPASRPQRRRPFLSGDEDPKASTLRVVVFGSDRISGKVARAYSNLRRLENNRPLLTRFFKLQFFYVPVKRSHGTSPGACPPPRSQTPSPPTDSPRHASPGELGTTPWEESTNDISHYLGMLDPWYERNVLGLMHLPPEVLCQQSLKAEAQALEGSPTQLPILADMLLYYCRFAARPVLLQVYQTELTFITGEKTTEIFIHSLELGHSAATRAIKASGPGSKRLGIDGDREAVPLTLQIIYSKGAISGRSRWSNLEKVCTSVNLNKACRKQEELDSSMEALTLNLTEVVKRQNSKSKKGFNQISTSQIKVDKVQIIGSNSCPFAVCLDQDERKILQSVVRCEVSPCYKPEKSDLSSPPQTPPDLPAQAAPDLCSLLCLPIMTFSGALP

Row | Compound | IC50
1 | O=C1NC(=S)SC1=Cc1ccc2c(c1)N(C(=O)c1ccccn1)CCO2 [Example 54, 5-[4-(Pyridine-2-carbonyl)-3,4-dihydro-2H-1,4-benzoxazin-6-ylmethylene]-2-thioxo-thiazolidin-4-one] | 445 nM
2 | O=C1NC(=S)SC1=Cc1ccc2c(c1)N(C(=O)Nc1ccc(Cl)c(Cl)c1)CCO2 [Example 78, 6-(4-Oxo-2-thioxo-thiazolidin-5-ylidenemethyl)-2,3-dihydro-benzo[1,4]oxazine-4-carboxylic acid (3,4-dichloro-phenyl)-amide] | 5 nM
3 | 2-(4-Oxo-2-thioxo-thiazolidin-5-ylidenemethyl)-7,8-dihydro-6H-5-oxa-9-aza-benzocycloheptene-9-carboxylic acid phenyl ester [Example 105] | 424 nM
4 | O=C1NC(=S)SC1=Cc1ccc2c(c1)N(C(=O)NCCc1cccs1)CCO2 [Example 64, 6-(4-Oxo-2-thioxo-thiazolidin-5-ylidenemethyl)-2,3-!dihydro-1,4-benzoxazine-4-carboxylic acid (2-thiophen-2-yl-ethyl)-amide] | 4000 nM
5 | COC(=O)c1ccc(OC(=O)N2CCCOc3ccc(C=C4SC(=S)NC4=O)cc32)cc1 [Example 108, 2-(4-Oxo-2-thioxo-thiazolidin-5-ylidenemethyl)-7,8-dihydro-6H-5-oxa-9-aza-benzocycloheptene-9-carboxylic acid 4-methoxycarbonyl-phenyl ester] | 640 nM
6 | CC(C)C(=O)N1CCOc2ccc(C=C3SC(=S)NC3=O)cc21 [Example 31, 5-(4-Isobutyryl-3,4-dihydro-2H-1,4-benzoxazin-6-ylmethylene)-2-thioxo-thiazolidin-4-one] | 9 nM
7 | O=C1NC(=S)SC1=Cc1ccc2c(c1)N(C(=O)Nc1ccc(Oc3ccccc3)cc1)CCCO2 [Example 118, 2-(4-Oxo-2-thioxo-thiazolidin-5-ylidenemethyl)-7,8-dihydro-6H-5-oxa-9-aza-benzocycloheptene-9-carboxylic acid (4-phenoxy-phenyl)-amide] | 1870 nM
8 | O=C1NC(=S)SC1=Cc1ccc2c(c1)N(C(=O)COc1ccc(Cl)cc1)CCCO2 [Example 109, 5-{9-[2-(4-Chloro-phenoxy)-acetyl]-6,7,8,9-tetrahydro-5-oxa-9-aza-benzocyclohepten-2-ylmethylene}-2-thioxo-thiazolidin-4-one] | 2030 nM
9 | Cc1cc(C)cc(NC(=O)N2CCOc3ccc(C=C4SC(=S)NC4=O)cc32)c1 [Example 79, 6-(4-Oxo-2-thioxo-thiazolidin-5-ylidenemethyl)-2,3-dihydro-benzo[14]oxazine-4-carboxylic acid (3,5-dimethyl-phenyl)-amide] | 9 nM
10 | O=C1NC(=S)SC1=Cc1ccc2c(c1)N(C(=O)c1ccc3ccccc3c1)CCO2 [Example 29, 5-[4-(Naphthalene-2-carbonyl)-3,4-dihydro-2H-1,4-benzoxazin-6-ylmethylene]-2-thioxo-thiazolidin-4-one] | 570 nM
11 | CC1CCCCC1CCC(=O)N1CCOc2ccc(C=C3SC(=S)NC3=O)cc21 (stereo not shown) [Example 87] | 120 nM
12 | O=C1NC(=S)SC1=Cc1ccc2c(c1)N(C(=O)Cc1ccc(Cl)c(Cl)c1)CCO2 [Example 15] | 7.3 nM
13 | 5-[4-(7,7-Dimethyl-2-oxo-bicyclo[2.2.1]hept-1-ylmethanesulfonyl)-3,4-dihydro-2H-1,4-benzoxazin-6-ylmethylene]-2-thioxo-thiazolidin-4-one [Example 60] | 330 nM
14 | O=C1NC(=S)SC1=Cc1ccc2c(c1)N(C(=O)Oc1ccccc1)CCO2 [Example 17, 6-(4-Oxo-2-thioxo-thiazolidin-5-ylidenemethyl)-2,3-dihydro-1,4-benzoxazine-4-carboxylic acid phenyl ester] | 3 nM
15 | O=C1NC(=S)SC1=Cc1ccc2c(c1)N(C(=O)c1ccc(-c3ccccc3)cc1)CCO2 [Example 24, 5-[4-(Biphenyl-4-carbonyl)-3,4-dihydro-2H-1,4-benzoxazin-6-ylmethylene]-2-thioxo-thiazolidin-4-one] | 560 nM
16 | Cc1cccc(C(=O)N2CCOc3ccc(C=C4SC(=S)NC4=O)cc32)c1 [Example 23, 5-[4-(3-Methyl-benzoyl)-3,4-dihydro-2H-1,4-benzoxazin-6-ylmethylene]-2-thioxo-thiazolidin-4-one] | 101 nM
17 | O=C1NC(=S)SC1=Cc1ccc2c(c1)N(CCc1ccccc1)CCCO2 [Example 16, 5-(9-Phenethyl-6,7,8,9-tetrahydro-5-oxa-9-aza-benzocyclohepten-2-ylmethylene)-2-thioxo-thiazolidin-4-one] | 80 nM

Further lines, results first:

Row | IC50 | Compound
18 | 100 nM | COc1cccc(C(=O)N2CCOc3ccc(C=C4SC(=S)NC4=O)cc32)c1 [Example 21, 5-[4-(3-Methoxy-benzoyl)-3,4-dihydro-2H-1,4-benzoxazin-6-ylmethylene]-2-thioxo-thiazolidin-4-one]
19 | 535 nM | CC(=O)OC(C)C(=O)N1CCOc2ccc(C=C3SC(=S)NC3=O)cc21 (stereo not shown) [Example 100, Acetic acid 1-methyl-2-oxo-2-[6-(4-oxo-2-thioxo-thiazolidin-5-ylidenemethyl)-2,3-dihydro-1,4-benzoxazin-4-yl]-ethyl ester]
20 | 1380 nM | 5-[9-(3,4-Dichloro-benzoyl)-6,7,8,9-tetrahydro-5-oxa-9-aza-benzocyclohepten-2-ylmethylene]-2-thioxo-thiazolidin-4-one [Example 114]
21 | 80 nM | O=C1NC(=S)SC1=Cc1ccc2c(c1)N(C(=O)Nc1ccc(Oc3ccccc3)cc1)CCO2 [Example 66, 6-(4-Oxo-2-thioxo-thiazolidin-5-ylidenemethyl)-2,3-dihydro-1,4-benzoxazine-4-carboxylic acid (4-phenoxy-phenyl)-amide]
22 | 65 nM | 5-[4-(Furan-2-carbonyl)-3,4-dihydro-2H-1,4-benzoxazin-6-ylmethylene]-2-thioxo-thiazolidin-4-one [Example 41]
23 | 1130 nM | O=C1NC(=S)SC1=Cc1ccc2c(c1)N(S(=O)(=O)c1ccccc1)CCO2 [Example 3, 5-[(4-benzenesulfonyl)-3,4-dihydro-2H-benzo[1,4]oxazine-6-ylmethylene)-2-thioxo-thiazolidin-4-one]
24 | 14 nM | COc1ccc(NC(=O)N2CCOc3ccc(C=C4SC(=S)NC4=O)cc32)cc1OC [Example 75, 6-(4-Oxo-2-thioxo-thiazolidin-5-ylidenemethyl)-2,3-dihydro-benzo[14]oxazine-4-carboxylic acid (3,4-dimethoxy-phenyl)-aniide]
25 | 115 nM | COc1cc(CC(=O)N2CCOc3ccc(C=C4SC(=S)NC4=O)cc32)cc(OC)c1 [Example 73]
26 | 33 nM | O=C1NC(=S)SC1=Cc1ccc2c(c1)N(C(=O)Nc1cc(Cl)cc(Cl)c1)CCO2 [Example 76, 6-(4-Oxo-2-thioxo-thiazolidin-5-ylidenemethyl)-2,3-dihydro-benzo[14]oxazine-4-carboxylic acid (3,5-dichloro-phenyl)-amide]
27 | 33 nM | CC(=O)N1CCOc2ccc(C=C3SC(=S)NC3=O)cc21 [Example 92, 5-(4-Acetyl-3,4-dihydro-2H-1,4-benzoxazin-6-ylmethylene)-2-thioxo-thiazolidin-4-one]
28 | 5 nM | CCCCC(=O)N1CCOc2ccc(C=C3SC(=S)NC3=O)cc21 [Example 96, 5-(4-Pentanoyl-3,4-dihydro-2H-1,4-benzoxazin-6-ylmethylene)-2-thioxo-thiazolidin-4-one]
29 | 3500 nM | 2-(4-Oxo-2-thioxo-thiazolidin-5-ylidenemethyl)-7,8-dihydro-6H-5-oxa-9-aza-benzocycloheptene-9-carboxylic acid p-tolylamide [Example 110]
30 | 125 nM | COc1cccc(NC(=O)N2CCOc3ccc(C=C4SC(=S)NC4=O)cc32)c1 [Example 59, 6-(4-Oxo-2-thioxo-thiazolidin-5-ylidenemethyl)-2,3-dihydro-1,4-benzoxazine-4-carboxylic acid (3-methoxy-phenyl)-amide]
31 | 275 nM | CCCCC(CC)C(=O)N1CCOc2ccc(C=C3SC(=S)NC3=O)cc21 (stereo not shown) [Example 99, 5-[4-(2-Ethyl-hexanoyl)-3,4-dihydro-2H-1,4-benzoxazin-6-ylmethylene]-2-thioxo-thiazolidin-4-one]
32 | 2020 nM | CCCCCCc1ccc(C(=O)N2CCOc3ccc(C=C4SC(=S)NC4=O)cc32)cc1 [Example 27, 5-[4-(4-Hexyl-benzoyl)-3,4-dihydro-2H-1,4-benzoxazin-6-ylmethylene]-2-thioxo-thiazolidin-4-one]
33 | 20 nM | COC(=O)CCC(=O)N1CCOc2ccc(C=C3SC(=S)NC3=O)cc21 [Example 101, 4-Oxo-4-[6-(4-oxo-2-thioxo-thiazolidin-5-ylidenemethyl)-2,3-dihydro-1,4-benzoxazin-4-yl]-butyric acid methyl ester]
34 | 715 nM | O=C1NC(=S)SC1=Cc1ccc2c(c1)N(C(=O)c1ccc3c(c1)OC(F)(F)O3)CCO2 [Example 48, 5-[4-(2,2-Difluoro-1,3-benzodioxole-5-carbonyl)-3,4-dihydro-2H-1,4-benzoxazin-6-ylmethylene]-2-thioxo-thiazolidin-4-one]
35 | 160 nM | O=C1NC(=S)SC1=Cc1ccc2c(c1)NCCO2 [Example 10, 5-(3,4-dihydro-2H-benzo[1,4]oxazine-6-ylmethylene)-2-thioxo-thiazolidin-4-one]
36 | 2590 nM | Cc1cc(C)cc(CN2c3cc(C=C4SC(=S)NC4=O)ccc3OCC2C)c1 (stereo not shown) [Example 9, 5-[4-(3,5-Dimethyl-benzyl)-3-methyl-3,4-dihydro-2H-benzo[1,4]oxazine-6-ylmethylene]-2-thioxo-thiazolidin-4-one]
37 | 32 nM | O=C1NC(=S)SC1=Cc1ccc2c(c1)N(C(=O)Nc1ccccc1)CCO2 [Example 58, 6-(4-Oxo-2-thioxo-thiazolidin-5-ylidenemethyl)-2,3-dihydro-1,4-benzoxazine-4-carboxylic acid phenylamide]
